Measured values taken from article PMC7076650, “Co-Encapsulation of Mitoxantrone and β-Elemene in Solid Lipid Nanoparticles to Overcome Multidrug Resistance in Leukemia” (Pharmaceutics, 2020).
Converted amounts (≈) assume the structure as drawn. Like-named read-outs stand apart in the source and are kept apart here.

How the values were obtained:
K562/DOX cells [1] = test: Intracellular ATP production assay; format: cell-based; conditions: 8 h at 37 °C
Description: An ATP assay kit was used to measure the intracellular ATP. K562/DOX cells at a density of 1 × 10^5 cells/well were seeded and cultured in 12-well plates and incubated for 24 h. The cells were then incubated with fresh medium containing MTO, MTO/βE, MTO-SLNs, and MTO/βE-SLNs for 8 h at 37 °C. The cell ATP content was determined based on the manufacturer’s protocol. Briefly, the cells were collected and lysed by 200 μL of lysis solution to obtain the cell lysate, followed by centrifugation at 12,000× g for 5 min at 4 °C. Next, 20 μL of the supernatant of each sample was mixed with 100 μL of ATP testing solution in a black 96-well plate, and kept for 10 min. A microplate luminometer (Luminoskan, Thermo Scientific, Waltham, MA, USA) was used to measure the luminescence intensity. The raw data were converted to ATP concentrations using the standard ATP calibration.

[2] = Pharmacokinetics after intravenous administration; format: in vivo, SD rats; conditions: rats; for AUC(0-t) / Cmax / half-life: male, Sprague-Dawley (SD), rat, plasma; for time post injection after which no drug was observed in plasma: free drug
Description: All the preparations were administered intravenously into the tail vein at a dose of 2 mg/kg (n = 6) for MTO and 4 mg/kg (n = 6) for βE. The blood samples were taken with a heparinized syringe at 0.5, 1, 2, 4, 6, 8, 12, and 24 h.

K562/DOX cells [3] = test: MTT cytotoxicity of MTO formulations in K562/DOX cells; format: cell-based; conditions: for IC50: Homo sapiens, K562/DOX cells, n = 3
Description: (§1) A cytotoxicity study of MTO, MTO/βE, MTO-SLNs, and MTO/βE-SLNs was also carried out by MTT assay in both K562 and K562/DOX cells lines. K562 cells and K562/DOX cells were seeded in a 96-well plate at a density of 5 × 10^3 cells/well and incubated for 48 h. Then, the cells were treated with MTO, MTO/βE, MTO-SLNs, and MTO/βE-SLNs at different doses (total amount of MTO in SLNs: 0.01, 0.1, 1, 2.5, 5, and 10 μg/mL in K562 cells and 0.1, 1, 10, 20, 40, and 80 μg/mL in K562/DOX cells for 48 h. After 48 h of incubation, cells were washed twice with cold PBS then incubated again for 4 h with 20 µL of MTT solution (5 mg/mL) added to each well. In order to solubilize the formazan crystals, 150 μL of DMSO per well was added to replace the medium. Finally, a Microplate Reader (Biotech) was used to measure the UV absorbance intensity at 570 nm. Each measurement was performed in triplicate. The cell viability percentage was evaluated using the following equation [4, 10]: Cell Viability (%)=ODsample /ODcontrol×100% where ODsample stands for the absorbance intensity of the cells treated with MTO, MTO/βE, MTO-SLNs, and MTO/βE-SLNs, while ODControl is the absorbance intensity of the untreated cells. The 50% inhibition concentrations (IC50) of different agents were calculated by Graph Pad Prism 5.0 software. All experiments were in triplicate and the results were given as means ± SD.
(§2) The different effects of drug formulations on K562/DOX were evaluated in the MDR reversal capacities through the index of drug resistance (IDR) and index of reversal of drug resistance (IRDR). IDR and IRDR were calculated as follows: IDR=IC50of other formulation against K562/DOX cells/IC50of MTO against K562 CellsIRDR=IC50of MTO against K562 cells /IC50of other formulation against K562/DOX cells

K562 cells = test: MTT cytotoxicity of MTO formulations in K562 cells; format: cell-based; conditions: n = 3; for IC50: Homo sapiens, K562, 48 h
Description: as §1, §2

K562/DOX cells [4] = test: MTT assay of combinatorial effects of MTO and βE in different mass ratios; format: cell-based; conditions: Homo sapiens, 48 h of incubation
Description: The combinatorial effects of MTO and βE in different ratios (w/w) were assessed against K562/DOX through MTT assay. With a density of 5 × 10^3 cells/well, K562/DOX cells were seeded in 96-well plates and incubated for 48 h, then treated with different concentrations of MTO dissolved in the free medium of RPMI-1640, βE dissolved in the mixture of (RPMI-1640 and 0.5% DMSO), and different combination mass ratios of MTO/βE (10:1, 5:1, 2:1, 1:1, 1:2, 1:5, and 1:10 w/w). After 48 h of incubation, cells were washed twice with cold PBS, and then incubated again for 4 h with 20 µL of MTT solution (5 mg/mL) added to each well. In order to solubilize the formazan crystals, 150 μL of DMSO per well was added to replace the medium. Finally, a Microplate Reader (Biotech, Winooski, VT, USA) was used to measure the UV absorbance intensity at 570 nm. Each measurement was performed in triplicate. The cell viability percentage was evaluated using the following equation: Cell Viability (%)=ODsample /ODcontrol×100% where ODSample stands for the optical density (absorbance intensity) of the cells treated with MTO, βE, or MTO in combination with βE, while ODControl is the absorbance intensity of the untreated cells. […] The synergistic effect of different combinations of MTO and βE was assessed through the calculation of combination index (CI) using the equation of Chou and Talalay. […]

K562/DOX cells [5] = test: Drug efflux study (DOX retained, flow cytometry), K562/DOX cells; format: cell-based; conditions: 10 μg/mL DOX loaded 4 h at 37 °C, then free medium
Description: In order to determine DOX efflux, K562 and K562/DOX cells were seeded and incubated in 12-well plates (1 × 10^5 cells/well). Different DOX formulations diluted with fresh medium to a concentration of 10 μg/mL were incubated with K562 and K562/DOX cells for 4 h at 37 °C. Subsequently, the cells were washed three times with ice-cold PBS, and then incubated with free medium at another 0.5, 1, 2, and 4 h. Ice-cold PBS was used to wash the cells at the end of each incubation time. The amounts of DOX retained in cells were determined by flow cytometry. The investigation was carried out in triplicate.

K562/A02 cells = test system: K562/A02 cells; parameters: method as in PMID 29453043; conditions: cited from earlier work
[6] = test system: K562/DOX xenografts tumors; test: In vivo antitumor activity in K562/DOX xenograft tumor model; parameters: species or system BALB/c nude mice; conditions: during treatment, compared with saline
Description: Mice bearing K562/DOX xenografts tumors were used to evaluate different MTO formulations through an in vivo antitumor efficacy study. K562/DOX cells at a concentration of 1 × 10^7 cells/mice with a volume of 200 μL were injected into the left axilla of BALB/c nude mice. After inoculation of cells, the growth of tumor was observed every two days by measuring the diameter of tumor with Vernier caliper. The tumor volume was calculated as (L × W^2)/2, where L and W are the tumor length and width, respectively. The anti-tumor evaluation was started when tumor volume reached about 100 mm^3, and this day was designated as day 0. Mice were randomly divided in five groups of six: Saline, MTO, MTO/βE, MTO-SLNs, and MTO/βE-SLNs (MTO dosage: 2 mg/kg and βE dosage: 4 mg/kg). The injections were carried out on days 0, 3, 6, 9, and 12 via the tail vein. In order to evaluate the treatment efficacy and safety, mice were sacrificed, and then tumors, heart, lung, liver, kidney, and spleen were dissected and fixed in 4% paraformaldehyde. In order to observe the pathological changes in different tissues, samples were cut and stained with hematoxylin and eosin (H&E) for histological analyses. An optical microscope (Leica DMI6000 B, Wetzlar, Germany) was used to take different photos. […]

Q: With `C=CC1(C)CCC(C(=C)C)CC1C(=C)C` (stereo not shown) [βE, 1-methyl-1-vinyl-2,4-diisopropenyl-cyclohexane] as the compound, how does the “effect on intracellular ATP” value (K562/DOX cells [1]) read?
A: significant inhibitory capacity

Q: What about the AUC(0-t) ([2]; 4 mg/kg βE, n = 6, read-out: AUC0–24 of βE) of the same compound?
A: 4.86 ± 1.76 µg·h/mL

Q: What about the Cmax ([2]; 4 mg/kg βE, n = 6, read-out: Cmax of βE) of the same compound?
A: 6.68 ± 1.21 µg/mL

Q: What about the half-life ([2]; 4 mg/kg βE, n = 6, read-out: T1/2 of βE (converted)) of the same compound?
A: 2.9 ± 0.45 h

Q: What about the “time post injection after which no drug was observed in plasma” value [2] of the same compound?
A: 12 h

Q: What about the IC50 (K562/DOX cells [3]; 48 h) of the same compound?
A: 140 mg/L (≈ 687 µM)

Q: What about the IC50 (K562 cells) of the same compound?
A: 122 mg/L (≈ 598 µM)

Q: What about the IC50 (K562/DOX cells [4]; n = 3, concentration of βE alone or in the combination, read-out: IC50 βE) of the same compound?
A: 140 mg/L

Q: Which “DOX that underwent efflux” value (K562/DOX cells [5]) does the source give for `COc1cccc2c1C(=O)c1c(O)c3c(c(O)c1C2=O)C[C@@](O)(C(=O)CO)C[C@@H]3O[C@H]1C[C@H](N)[C@H](O)[C@H](C)O1` [DOX, doxorubicin] here?
A: about 90%

Q: Which “reversal of resistance of K562/A02 cells to vincristine” value (K562/A02 cells) does the source give for ethyl lucidenates-A here?
A: 7.59 fold

Q: Which results are given for `Cl.Cl.O=C1c2c(O)ccc(O)c2C(=O)c2c(NCCNCCO)ccc(NCCNCCO)c21` [MTO, 1,4-dihydroxy-5,8-bis[[2-[(2-hydroxyethyl)amino]ethyl]amino] anthraquinone dihydrochloride]?
A: body weight of mice [6]: decreased remarkably; AUC(0-t) ([2]; 2 mg/kg MTO, n = 6, read-out: AUC0–24 of MTO): 1.18 ± 0.15 µg·h/mL; Cmax ([2]; 2 mg/kg MTO, n = 6, read-out: Cmax of MTO): 3.45 ± 0.58 µg/mL; half-life ([2]; 2 mg/kg MTO, n = 6, read-out: T1/2 of MTO (converted)): 1.53 ± 0.33 h; time post injection after which no drug was observed in plasma [2]: 6 h; IC50 (K562/DOX cells [3]; 48 h): 48.2 mg/L; cell survival rate of K562/DOX cells (K562/DOX cells [3]; concentration of MTO 10 μg/mL, 48 h): 81.43%; survival ratio in K562/DOX cells (K562/DOX cells [3]; concentration of MTO 80 μg/mL, 48 h): 24.06%; IDR (index of drug resistance) (K562/DOX cells [3]; from IC50 in K562/DOX and K562 cells): 9.59; IC50 K562 (K562 cells; 48 h): 5.025 mg/L; IC50 (K562 cells): 5.02 mg/L; IC50 (K562/DOX cells [4]; n = 3, concentration of MTO alone or in the combination, read-out: IC50 MTO): 48.2 mg/L
